Tested on: Primary cultures of astrocytes
Experiment: Activation of astrocytes (morphological change in primary astrocyte cultures)
Assay type: cell-based, Fischer 344 rats
Conditions: 6 hours after start of treatment, serum-free medium, microscope 200× magnification, versus polygonal flat control cells (FIG. 1/7)
Protocol: 1) Activation of Astrocytes
Primary cultures of astrocytes were obtained from the cerebral cortical tissue of newborn Fischer 344 rats within 24 hours after birth. The brains were dissected out of the vault of the cranium under sterile conditions, the cortical tissue (cortex) was isolated, and the cells were dissociated through a narrow-mesh wire netting. The cells were put into cell culture bottles and cultivated in serum-containing DMEM solution (contained fetal calf serum and a penicillin/streptomycin mixture) until the cells were confluent. Oligodendrocytes and microglia were removed by washing with cold buffer solution. The confluent astrocytes were then detached from the base of the culture bottles with a trypsin solution and seeded in a density of 20 000 cells/cm2 in Petri dishes on coverslips and cultivated in serum-containing medium until the cells were again confluent. Two days after confluence, the medium was replaced by serum-free medium and, after 24 hours, the medium was replaced again, likewise by serum-free medium. Twenty-four hours after the second replacement of medium, salmeterol was added. Six hours after the treatment, the astrocytes were photographed under the microscope with 200× magnification to document the morphological changes (FIG. 1/7).

OCc1cc(C(O)CNCCCCCCOCCCCc2ccccc2)ccc1O (stereo not shown) [salmeterol]
morphological changes of astrocytes (activation): activated, stellate and refractile astrocytes
